Experimental data: patent publication US20120010177A1, “MicroRNA Modulators and Method for Identifying And Using The Same” (The Wistar Institute / North Carolina State University, priority 2008, published 2012)

System: miR-21
Test: High throughput primary miR-21 FLuc reporter assay (concentration-response)
Assay type: cell-based, human
Details: HeLa Luc-miR-21 reporter, 48-hour incubation
Protocol: Primary miR-21 Assay. The primary miR-21 FLuc reporter assay is carried out with HeLa cells expressing the Luc-miR-21 reporter using a 48-hour incubation time. Active compounds that increase the luciferase response are identified based upon inhibition of miR-21.
SAR. The concentration-response data for the entire high throughput screen is plotted and modeled by a four parameter logistic fit and SAR analysis is performed according to conventional approaches (Iglese, et al. (2006) Proc. Natl. Acad. Sci. USA […]:11473-8). In brief, Class 1.1 and 1.2 are full curves containing upper and lower asymptotes with efficacy ≧80% and <80%, respectively. Class 2.1 and 2.2 are incomplete curves having only one asymptote with efficacy ≧80% and <80%, respectively. Class 3 curves show activity at only the highest concentration or are poorly fit. […] For SAR analysis, compounds associated with Class 1 and 2.1 curves are clustered using LEADSCOPE® fingerprints. […] Compounds sharing a common scaffold form a series. Candidate series and singletons are chosen for follow up studies. For each lead or series, an appropriate library design method (e.g., point substitution library or matrix library) is selected. Typically, precursors are synthesized and a library of 15-25 compounds is produced for analysis in the above-described assays.

In order of falling Efficacy:
1. CC(C)c1ccc2nc(SCC(=O)NCC3CCCO3)c(C#N)cc2c1 (centres unmarked) [Compound 135, CC(C)C1═C/C═C2/N═C(SCC(═O)NCC3CCCO3)\C(═C/C\2═C\1)C#N]  −60.74
2. Nc1[nH]cnc2nc(SCC(=O)Nc3ccccc3F)nc1-2 [Compound 154, N\C1═C2/N═C(SCC(═O)NC3═C/C═C\C═C\3F)\N═C\2\N═C/N1]  −64.80

Same assay, conditions: HeLa Luc-miR-21 reporter, 48-hour incubation, four parameter logistic fit

In order of falling “Curve Class” value:
1. CC(C)c1ccc2nc(SCC(=O)NCC3CCCO3)c(C#N)cc2c1 (centres unmarked) [Compound 135, CC(C)C1═C/C═C2/N═C(SCC(═O)NCC3CCCO3)\C(═C/C\2═C\1)C#N]  −2.2
2. Nc1[nH]cnc2nc(SCC(=O)Nc3ccccc3F)nc1-2 [Compound 154, N\C1═C2/N═C(SCC(═O)NC3═C/C═C\C═C\3F)\N═C\2\N═C/N1]  −2.2

Same assay, conditions: HeLa Luc-miR-21 reporter, 48-hour incubation; read-out: AC50

In order of rising AC50:
1. CC(C)c1ccc2nc(SCC(=O)NCC3CCCO3)c(C#N)cc2c1 (centres unmarked) [Compound 135, CC(C)C1═C/C═C2/N═C(SCC(═O)NCC3CCCO3)\C(═C/C\2═C\1)C#N]  5.85 µM
2. Nc1[nH]cnc2nc(SCC(=O)Nc3ccccc3F)nc1-2 [Compound 154, N\C1═C2/N═C(SCC(═O)NC3═C/C═C\C═C\3F)\N═C\2\N═C/N1]  14.7 µM

Same assay, conditions: Homo sapiens, HeLa, 48 h, HeLa Luc-miR-21 reporter, 48-hour incubation; read-out: AC50

In order of falling AC50:
1. CCCC(=O)Nc1ccc(NC(=O)C23CC4CC(CC(C4)C2)C3)cn1 [Compound 99]  18.5 µM
2. COc1ccc(NC(=O)c2ccccc2NC(=O)c2ccccc2C(=O)O)c(OC)c1 [Compound 104]  18.5 µM
3. O=C(Nc1ccc2nn(-c3ccccc3)nc2c1)c1ccc(-c2cccc(Cl)c2)o1 [Compound 109]  18.5 µM
4. CCC(C)NC(=O)CSc1ccc(Cl)cc1 (centres unmarked) [Compound 162]  18.5 µM
5. CCOc1ccc(NC(=O)CSc2ccc3ccccc3n2)cc1 [Compound 163]  18.5 µM
6. O=C(CSc1nnc(-c2ccc(Br)cc2)o1)Nc1cccc2ccccc12 [Compound 164]  18.5 µM
7. O=C(COc1ccccc1[N+](=O)[O-])N/N=C/c1cccc(OC(=O)c2ccc3c(c2)OCO3)c1 [Compound 173]  18.5 µM
8. CCC(=O)Nc1ccc(NC(=O)C23CC4CC(CC(C4)C2)C3)cn1 [Compound 98]  16.5 µM
9. COc1ccc(NC(=O)c2sc3nc[nH]c(=O)c3c2C)cc1Cl [Compound 103]  16.5 µM
10. Cc1ccc(NC(=O)Cc2noc3ccccc23)nc1 [Compound 111]  16.5 µM
11. COc1ccc(C(Nc2ccccn2)c2c(NC(=O)c3ccco3)sc(C)c2C)cc1OC (centres unmarked) [Compound 115]  16.5 µM
12. COc1ccc(C(=O)NCCC2=CCCCC2)cc1OC1CCN(C(C)C)CC1 [Compound 117]  16.5 µM
13. Cc1ccc(-c2nnc(SCC(=O)Nc3nccs3)n2N)cc1 [Compound 159]  16.5 µM
14. CCOC(=O)N1CCN(C(=O)CSCc2ccccc2Cl)CC1 [Compound 160]  16.5 µM
15. Cc1ccc(-c2nsc(SCC(=O)Nc3ccc4c(c3)OCO4)n2)cc1 [Compound 161]  16.5 µM
16. CCCNC(=O)COCc1cc(-c2ccc(F)cc2)on1 [Compound 170]  16.5 µM
17. CCn1c2ccccc2c2cc(NC(=O)COC(=O)Cc3cn4ccsc4n3)ccc21 [Compound 171]  16.5 µM
18. COCC(=O)Nc1nnc(C2CCCCC2)s1 [Compound 176]  16.5 µM
19. Cn1nnc2cc(C(=O)Nc3ccccc3F)ccc21 [Compound 108]  14.7 µM
20. O=C(CSc1ccccc1)NCCc1ccccc1 [Compound 152]  14.7 µM
21. COc1ccccc1NC(=O)CSc1nnc(-c2ccccn2)o1 [Compound 153]  14.7 µM
22. CCN(CC)C(=O)CS/C(=N/C#N)Nc1ccccc1F [Compound 155]  14.7 µM
23. Cc1cc(C)c(C#N)c(SCC(=O)Nc2nonc2N)n1 [Compound 156]  14.7 µM
24. Cc1cc(C)cc(NC(=O)CSc2nnc(-c3ccccc3C)o2)c1 [Compound 157]  14.7 µM
25. CSc1nsc(SCC(=O)Nc2ccccc2F)n1 [Compound 158]  14.7 µM
26. Cc1ccc(OCC(=O)N(Cc2ccco2)c2ccccn2)cc1 [Compound 169]  14.7 µM
27. CC(=O)Nc1ccc(NC(=O)COc2ccc(Cl)cc2Cl)cc1 [Compound 175]  14.7 µM
28. Cc1cc(CC(C)C)n(-c2nc3ccccc3c(=O)n2OCC(N)=O)n1 [Compound 180]  14.7 µM
29. COc1ccc(NC(=O)c2nnn(CC(=O)Nc3cccc(C)c3C)c2N)c(OC)c1 [Compound 102]  13.1 µM
30. CN1CCN(NC(=O)Nc2ccc(Br)cc2Cl)CC1 [Compound 116]  13.1 µM
31. Cc1cccc(-c2nsc(SCC(=O)Nc3ccc4c(c3)OCO4)n2)c1 [Compound 148]  13.1 µM
32. O=C(CSc1nnc(-c2cccnc2)o1)Nc1cccc(Cl)c1 [Compound 149]  13.1 µM
33. CSc1nsc(SCC(=O)N2CCCCC2)n1 [Compound 150]  13.1 µM
34. COc1ccc(-c2nnc(SCC(=O)Nc3cccc(C)c3)s2)cc1 [Compound 151]  13.1 µM
35. O=C(Nc1ccccc1OC(=O)c1ccc(Cl)cc1)c1ccc(Cl)cc1 [Compound 107]  11.7 µM
36. Nc1cc(N)nc(SCC(=O)Nc2ccc(Br)cc2Cl)n1 [Compound 113]  11.7 µM
37. COc1cc2cc(C#N)c(SCC(=O)N3CCOCC3)nc2cc1OC [Compound 144]  11.7 µM
38. COCc1cc(C)nc(SCC(=O)Nc2ccc3c(c2)OCCO3)c1C#N [Compound 145]  11.7 µM
39. CCC(=O)Oc1ccc(NC(=O)CSCc2ccccc2)cc1 [Compound 146]  11.7 µM
40. Cc1ccc(-c2csc(NC(=O)CSc3nc4ccccc4o3)n2)cc1 [Compound 147]  11.7 µM
41. O=C(COc1ccccc1[N+](=O)[O-])N/N=C/c1ccc(O)cc1 [Compound 172]  11.7 µM
42. COCC(=O)Nc1ccc(C(=O)Nc2ccccc2Cl)cc1 [Compound 178]  11.7 µM
43. Cc1cccc(NC(=O)C2Cc3ccccc3O/C2=N/O)c1 (centres unmarked) [Compound 114]  10.4 µM
44. COC(=O)/C(=C/c1cccc([N+](=O)[O-])c1)NC(=O)c1ccc(OC)cc1 [Compound 119]  10.4 µM
45. COc1ccc(NC(=O)c2ncn(-c3ccccc3)n2)cc1Cl [Compound 101]  9.27 µM
46. O=C(CSc1nnc(-c2ccccn2)o1)Nc1ccccc1C(F)(F)F [Compound 142]  9.27 µM
47. CN(C(=O)CSc1nnc(-c2ccccc2F)o1)C1CCCCC1 [Compound 143]  9.27 µM
48. CC(C)c1nnc(NC(=O)COc2ccccc2[N+](=O)[O-])s1 [Compound 179]  9.27 µM
49. Cc1ccc(-c2cc(C(=O)NCCc3ccccc3)c3c(-c4ccc(C)cc4)[nH]nc3c2)cc1 [Compound 110]  9.26 µM
50. Cc1ccc(NC(=O)CSc2nnc(-c3cccs3)o2)cc1S(=O)(=O)N(C)C [Compound 141]  8.26 µM
51. CCCC(=O)N(CCN1CCOCC1)c1nc2cc(C)c(C)cc2s1 [Compound 120]  7.36 µM
52. Cc1ccc(SCC(=O)Nc2ccc3oc(-c4ccc(F)cc4)nc3c2)cc1 [Compound 140]  7.36 µM
53. C=CCNC(=S)NNC(=O)COc1ccc2cc(Br)ccc2c1 [Compound 181]  7.36 µM
54. O=C(Nc1ccc2nc3n(c(=O)c2c1)CCCCC3)c1ccccc1Cl [Compound 112]  6.56 µM
55. N#CC1=C(SCC(=O)Nc2ccccc2)NC(=O)CC1c1ccc(O)cc1 (centres unmarked) [Compound 136]  6.56 µM
56. COc1ccc(NC(=O)CSc2nnc(-c3cccs3)o2)cc1 [Compound 137]  6.56 µM
57. CC(C)(C)c1ccc(NC(=O)CSc2nnc(-c3[nH]nc4ccccc34)o2)cc1 [Compound 138]  6.56 µM
58. COc1cccc(NC(=O)CSc2nnc(-c3cccs3)o2)c1 [Compound 139]  6.56 µM
59. Cc1cccc(OCC(=O)Nc2sc3c(c2C#N)CCC3)c1 [Compound 168]  6.56 µM
60. Cc1cccc(-c2nnc(SCC(=O)Nc3ccc(C)c(C)c3)o2)c1 [Compound 134]  5.85 µM
61. Cc1cc(NC(=O)CSc2nc3ccsc3c(=O)n2NC(=O)c2ccccc2)no1 [Compound 133]  5.21 µM
62. C#Cc1cccc(NC(=O)CSc2nnc(-c3ccc(C(F)(F)F)cn3)o2)c1 [Compound 130]  4.14 µM
63. CSc1nsc(SCC(=O)Nc2ccc(F)cc2F)n1 [Compound 131]  4.14 µM
64. O=C(CSc1nnc(-c2ccc(C(F)(F)F)cn2)o1)Nc1cccc(Cl)c1 [Compound 132]  4.14 µM
65. O=C(Nc1nnc(S(=O)(=O)N2CCCC2)s1)c1ccc(F)cc1 [Compound 106]  3.69 µM
66. Cc1cc(C(F)(F)F)c(C#N)c(SCC(=O)Nc2nc3cc(Br)ccc3s2)n1 [Compound 129]  3.69 µM
67. Cc1cc(C)c(C#N)c(SCC(=O)Nc2ccc3c(c2)OCO3)n1 [Compound 128]  3.29 µM
68. Cc1c(-c2nnc(SCC(=O)Nc3ccccc3F)o2)nnn1-c1ccc(F)cc1 [Compound 127]  2.93 µM
69. COc1ccc(OCC(=O)Nc2ccc(-c3nc4cc(Cl)ccc4o3)cc2)cc1 [Compound 167]  2.93 µM
70. COc1ccc(-c2csc(NC(=O)COC(=O)c3ccc(Br)o3)n2)cc1 [Compound 177]  2.93 µM
71. CC(C)(C)c1ccc(-c2nc(NC(=O)CSc3ccc4ccccc4n3)ns2)cc1 [Compound 126]  2.33 µM
72. COc1ccc(NC(=O)CSc2nc(SC)ns2)c(OC)c1 [Compound 125]  2.07 µM
73. O=C(CSc1nnc(-c2ccccn2)o1)Nc1cccc(Cl)c1 [Compound 124]  1.85 µM
74. O=C(COc1ccccc1F)Nc1ccc(-c2nc3ccccc3s2)cc1 [Compound 166]  1.47 µM
75. O=C(CSc1nnc(-c2ccc(O)cc2)o1)Nc1ccccc1Br [Compound 123]  1.31 µM
76. NC(=O)c1ccccc1NC(=O)c1ccc(-c2ccc(Br)cc2)o1 [Compound 105]  1.17 µM
77. O=C(CSc1nnc(-c2ccc(Cl)cc2)o1)Nc1ccc(F)cc1 [Compound 122]  1.04 µM
78. COCC(=O)Nc1c(C(=O)Nc2ccc3c(c2)OCCO3)oc2ccccc12 [Compound 100]  0.66 µM
79. N#CC1Cc2cc3c(cc2N=C1SCC(=O)N1CCOCC1)OCO3 (centres unmarked) [Compound 121]  0.66 µM
80. COc1ccc(OCC(=O)Nc2ccc(-c3nc4cc(C)c(C)cc4o3)cc2)cc1 [Compound 165]  0.13 µM
